Source: US20050096354A1 (published 2005)

Row | melting point | SMILES
1 | 243 to 244 °C | Cc1ccc(-c2c(C#N)nn(-c3c(Cl)cc(C(F)(F)F)cc3Cl)c2N)cc1
2 | 198 to 199 °C | N#Cc1nn(-c2c(Cl)cc(C(F)(F)F)cc2Cl)c(N)c1-c1ccccc1
3 | 212 to 214 °C | N#Cc1nn(-c2c(Cl)cc(C(F)(F)F)cc2Cl)c(N)c1-c1cccc([N+](=O)[O-])c1
4 | 242 to 244 °C | N#Cc1nn(-c2c(Cl)cc(C(F)(F)F)cc2Cl)c(N)c1-c1ccc(Br)cc1
5 | 235 to 237 °C | N#Cc1nn(-c2c(Cl)cc(C(F)(F)F)cc2Cl)c(N)c1-c1ccc(Cl)cc1
6 | 222 to 223 °C | N#Cc1nn(-c2c(Cl)cc(C(F)(F)F)cc2Cl)c(N)c1-c1ccc(F)cc1
7 | 228 to 230 °C | N#Cc1nn(-c2c(Cl)cc(C(F)(F)F)cc2Cl)c(N)c1-c1cc(Cl)cc(Cl)c1
8 | 197 to 198 °C | N#Cc1nn(-c2c(Cl)cc(C(F)(F)F)cc2Cl)c(N)c1-c1ccc(F)c(Cl)c1
9 | 214 to 216 °C | COC(=O)c1cccc(-c2c(C#N)nn(-c3c(Cl)cc(C(F)(F)F)cc3Cl)c2N)c1
10 | 187 °C | N#Cc1nn(-c2c(Cl)cc(C(F)(F)F)cc2Cl)c(N)c1-c1cccc(N)c1
11 | 222 °C | COc1ccc(-c2c(C#N)nn(-c3c(Cl)cc(C(F)(F)F)cc3Cl)c2N)cc1
12 | 222 °C | N#Cc1nn(-c2c(Cl)cc(C(F)(F)F)cc2Cl)c(N)c1-c1ccc2c(c1)OCO2
13 | 250 °C | COc1ccc(-c2c(C#N)nn(-c3c(Cl)cc(C(F)(F)F)cc3Cl)c2N)cc1OC
14 | 164 °C | N#Cc1nn(-c2c(Cl)cc(C(F)(F)F)cc2Cl)c(N)c1-c1cccc(F)c1
15 | 161 to 162 °C | N#Cc1nn(-c2c(Cl)cc(C(F)(F)F)cc2Cl)c(N)c1-c1cccc(Cl)c1
16 | 197 °C | N#Cc1nn(-c2c(Cl)cc(C(F)(F)F)cc2Cl)c(N)c1-c1ccccc1F
17 | 193 °C | COc1ccccc1-c1c(C#N)nn(-c2c(Cl)cc(C(F)(F)F)cc2Cl)c1N
18 | 199 to 202 °C | Cc1ccccc1-c1c(C#N)nn(-c2c(Cl)cc(C(F)(F)F)cc2Cl)c1N

Row | melting point | SMILES
19 | 210 to 212 °C | N#Cc1nn(-c2c(Cl)cc(C(F)(F)F)cc2Cl)c(N)c1-c1ccccc1C(F)(F)F
20 | 192 to 193 °C | N#Cc1nn(-c2c(Cl)cc(C(F)(F)F)cc2Cl)c(N)c1-c1ccccc1Cl
21 | 208 °C | N#Cc1nn(-c2c(Cl)cc(C(F)(F)F)cc2Cl)c(N)c1-c1cccc2ccccc12
22 | 265 to 267 °C | N#Cc1nn(-c2c(Cl)cc(C(F)(F)F)cc2Cl)c(N)c1-c1cccnc1
23 | 266 to 268 °C (dec.) | N#Cc1nn(-c2c(Cl)cc(C(F)(F)F)cc2Cl)c(N)c1-c1ccncc1
24 | 206 to 207 °C | N#Cc1nn(-c2c(Cl)cc(C(F)(F)F)cc2Cl)c(N)c1-c1cccs1
25 | 210 to 212 °C | N#Cc1nn(-c2c(Cl)cc(C(F)(F)F)cc2Cl)c(N)c1-c1ccsc1
26 | 180 to 181 °C | N#Cc1nn(-c2c(Cl)cc(C(F)(F)F)cc2Cl)c(N)c1-c1ccoc1
27 | 222.6 °C | N#Cc1nn(-c2c(Cl)cccc2Cl)c(N)c1-c1ccco1
28 | 227 °C | N#Cc1nn(-c2c(Cl)cc(C(F)(F)F)cc2Cl)c(N)c1-c1cc(Br)no1
29 | 226 to 228 °C | Cc1nc(-c2c(C#N)nn(-c3c(Cl)cc(C(F)(F)F)cc3Cl)c2N)cs1
30 | 214 °C | N#Cc1nn(-c2c(Cl)cc(C(F)(F)F)cc2Cl)c(N)c1-c1ccc(Br)s1
31 | 162 to 163 °C | N#Cc1nn(-c2c(Cl)cc(C(F)(F)F)cc2Cl)c(N)c1-c1ccc(SC(F)(F)F)s1
32 | 279 °C | N#Cc1nn(-c2c(Cl)cc(C(F)(F)F)cc2Cl)c(N)c1-c1onc(Br)c1Br
33 | 141 to 142 °C | N#Cc1nn(-c2c(Cl)cc(C(F)(F)F)cc2Cl)c(N)c1-c1ccoc1[S+]([O-])C(F)(F)F (stereo not drawn)
34 | 148 to 151 °C | N#Cc1nn(-c2c(Cl)cc(C(F)(F)F)cc2Cl)c(N)c1-c1ccc(C(F)(F)F)o1
35 | 193 to 194 °C | N#Cc1nn(-c2c(Cl)cc(C(F)(F)F)cc2Cl)c(N)c1-c1cc(Cl)oc1Cl
36 | 178 to 179 °C | N#Cc1nn(-c2c(Cl)cc(C(F)(F)F)cc2Cl)c(N)c1C1CC1(Br)Br (stereo not drawn)
